# Measured values from article PMC5216903 (Febs Letters, 2016).
# Experiments:
# Test in all cases: two-electrode voltage clamp of Xenopus oocytes, steady-state current
# Details in all cases: ND96 buffer pH 7.6, -60 mV; Fe(III) complex of DMA
# Hv-Zm-Hv = format: cell-based, Hordeum vulgare; Zea mays
# Zm-Hv-Zm = format: cell-based, Zea mays; Hordeum vulgare
# ZmYS1 = target: T1, ZmYS1 (Zea mays, UniProt Q9AY27); format: cell-based
# T1 sequence (Q9AY27 1-682): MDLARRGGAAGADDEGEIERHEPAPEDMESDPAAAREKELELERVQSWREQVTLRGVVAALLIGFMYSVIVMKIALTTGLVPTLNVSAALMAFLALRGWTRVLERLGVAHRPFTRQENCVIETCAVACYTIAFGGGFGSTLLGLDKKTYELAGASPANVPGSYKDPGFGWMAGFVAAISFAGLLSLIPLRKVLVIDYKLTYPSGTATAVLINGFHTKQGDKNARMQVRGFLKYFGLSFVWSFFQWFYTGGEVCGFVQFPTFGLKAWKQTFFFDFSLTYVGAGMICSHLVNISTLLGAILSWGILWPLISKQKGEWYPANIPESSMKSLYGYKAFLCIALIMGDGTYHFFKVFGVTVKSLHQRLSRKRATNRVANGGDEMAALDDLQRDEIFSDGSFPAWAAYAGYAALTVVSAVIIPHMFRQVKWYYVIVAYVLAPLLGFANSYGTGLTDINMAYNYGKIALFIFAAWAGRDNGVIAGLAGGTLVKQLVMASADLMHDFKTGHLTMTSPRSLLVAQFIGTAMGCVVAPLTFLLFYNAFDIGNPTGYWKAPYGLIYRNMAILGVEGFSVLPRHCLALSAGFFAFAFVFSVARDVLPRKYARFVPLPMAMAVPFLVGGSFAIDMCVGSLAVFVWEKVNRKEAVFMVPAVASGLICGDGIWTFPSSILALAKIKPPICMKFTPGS
# HvYS1 = HvYS1 (Hordeum vulgare, UniProt Q2PGC4); format: cell-based
# Chain of HvYS1 (Q2PGC4 1-678): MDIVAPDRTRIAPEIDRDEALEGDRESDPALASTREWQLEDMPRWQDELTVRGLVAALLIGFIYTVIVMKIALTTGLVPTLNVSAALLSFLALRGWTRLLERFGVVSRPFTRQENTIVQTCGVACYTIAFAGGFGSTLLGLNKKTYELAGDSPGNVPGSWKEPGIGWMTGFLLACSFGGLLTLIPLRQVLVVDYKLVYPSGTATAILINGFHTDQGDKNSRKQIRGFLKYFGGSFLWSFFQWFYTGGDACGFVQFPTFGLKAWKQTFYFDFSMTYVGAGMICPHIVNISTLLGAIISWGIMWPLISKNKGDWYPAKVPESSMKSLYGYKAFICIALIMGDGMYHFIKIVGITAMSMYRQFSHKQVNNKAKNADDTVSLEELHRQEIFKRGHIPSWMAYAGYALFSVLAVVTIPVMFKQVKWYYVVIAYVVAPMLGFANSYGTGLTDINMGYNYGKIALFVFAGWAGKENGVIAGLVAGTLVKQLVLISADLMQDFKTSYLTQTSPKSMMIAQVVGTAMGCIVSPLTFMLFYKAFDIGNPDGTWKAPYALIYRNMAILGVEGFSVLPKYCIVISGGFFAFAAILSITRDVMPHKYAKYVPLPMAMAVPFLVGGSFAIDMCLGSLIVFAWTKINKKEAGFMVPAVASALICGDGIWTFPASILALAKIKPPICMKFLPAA
structure (smiles),measurement,setting,value
O=C([O-])[C@H](CCN1CC[C@H]1C(=O)[O-])NCC[C@H](O)C(=O)[O-].[Fe+3] [Fe(III)-DMA],Km,Hv-Zm-Hv,60.8 µM
same,Km,Zm-Hv-Zm,44.2 µM
same,Km,ZmYS1,65.3 µM
same,Km,HvYS1,71.8 µM
